From US20190308988A1, “OPIOID RECEPTOR ANTAGONIST PRODRUGS” (Nirsum Laboratories, Inc., priority 2017, published 2019)
Values after ≈ are worked out from the molar mass of the structure shown.

Experiment: Solubility determination in oil (Table 10)
Conditions: for solubility at 24 h: 25 °C, Obs. Temp. 25 °C; for solubility at 24 h / solubility thermodynamic / solubility: thermodynamic from solid; for solubility thermodynamic / solubility: 40 °C; for solubility thermodynamic: water, Equilibrium solubility: Water
Protocol: A known amount of test substance (˜40 mg) was weighed into the vial, 100 μL of oil was added and heated to 60° C. and then system was slurried to reach equilibrium. […] Extra oil was added into the vial once compound precipitated out and then the system was re-equilibrated at 1000 rpm at room temperature (25° C.). Final concentration was determined by HPLC method as described below in Table 6a and 6b.

[1] = oil or lipid, Approximate Solubility in Excipient: Cottonseed oil, Heating Temp. 60 °C
[2] = oil or lipid, Approximate Solubility in Excipient: Sesame oil, Heating Temp. 60 °C
[3] = Heating Temp. 40 °C, Obs. Temp. 40 °C
[4] = oil or lipid, Approximate Solubility in Excipient: Cottonseed oil, Heating Temp. 40 °C, Obs. Temp. 40 °C
[5] = oil or lipid, Approximate Solubility in Excipient: Cottonseed oil, Heating Temp. 60 °C, Obs. Temp. 40 °C
[6] = oil or lipid, Approximate Solubility in Excipient: Sesame oil, Heating Temp. 40 °C, Obs. Temp. 40 °C
[7] = oil or lipid, Approximate Solubility in Excipient: Sesame oil, Heating Temp. 60 °C, Obs. Temp. 40 °C
[8] = organic solvent or mixture, Approximate Solubility in Excipient: Ethanol, Heating Temp. 40 °C, Obs. Temp. 40 °C
[9] = oil or lipid, Approximate Solubility in Excipient: Castor oil, Heating Temp. 40 °C, Obs. Temp. 40 °C
[10] = Heating Temp. 60 °C, Obs. Temp. 40 °C

Row | Structure (SMILES) | solubility at 24 h [1] [mg/mL] | solubility at 24 h [2] [mg/mL] | solubility thermodynamic [3] [mg/mL] | solubility [4] [mg/mL] | solubility [6] [mg/mL] | solubility [8] [mg/mL] | further results
1 | C=C1CC[C@@]2(O)C3Cc4ccc(OC(=O)OCCCCCCCCCCCCCCCCCCCC)c5c4[C@@]2(CCN3CC2CC2)[C@H]1O5 [Compound 28, (4aS,7aS,12bS)-3-(cyclopropylmethyl)-4a-hydroxy-7-methylene-2,3,4,4a,5,6,7,7a-octahydro-1H-4,12-methanobenzofuro[3,2-e]isoquinolin-9-yl icosyl carbonate] | < 50.2 | < 50.6 | < 0.001 | – | – | – | –
2 | C=C1CC[C@@]2(O)C3Cc4ccc(OC(=O)CCCCCCCCCCCCCCCCC)c5c4[C@@]2(CCN3CC2CC2)[C@H]1O5 [Compound 12, (4aS,7aS,12bS)-3-(cyclopropylmethyl)-4a-hydroxy-7-methylene-2,3,4,4a,5,6,7,7a-octahydro-1H-4,12-methanobenzofuro[3,2-e]isoquinolin-9-yl stearate] | < 51 | < 50 | 0.043 (≈ 0.071 mM) | 100 to 120 (≈ 165 to 198 mM) | 70 to 95 (≈ 116 to 157 mM) | 65 to 75 (≈ 107 to 124 mM) | solubility [5]: > 398 mg/mL; solubility [7]: > 411 mg/mL
3 | C=C1CC[C@@]2(O)C3Cc4ccc(OC(=O)CCCCCCCCCCC/C=C\CCCCCCCC)c5c4[C@@]2(CCN3CC2CC2)[C@H]1O5 [Compound 13, (4aS,7aS,12bS)-3-(cyclopropylmethyl)-4a-hydroxy-7-methylene-2,3,4,4a,5,6,7,7a-octahydro-1H-4,12-methanobenzofuro[3,2-e]isoquinolin-9-yl (Z)-docos-13-enoate] | < 50 | 91 to 121 (≈ 138 to 183 mM) | 0.002 (≈ 0.00303 mM) | > 381 | > 406 | > 214 | –
4 | C=C1CC[C@@]2(O)C3Cc4ccc(OC(=O)CCCCCCC/C=C\C/C=C\CCCCC)c5c4[C@@]2(CCN3CC2CC2)[C@H]1O5 [Compound 37, (4aS,7aS,12bS)-3-(cyclopropylmethyl)-4a-hydroxy-7-methylene-2,3,4,4a,5,6,7,7a-octahydro-1H-4,12-methanobenzofuro[3,2-e]isoquinolin-9-yl (9Z,12Z)-octadeca-9,12-dienoate] | 68.5 to 82 (≈ 114 to 136 mM) | 80 to 102 (≈ 133 to 169 mM) | 0.002 (≈ 0.00332 mM) | > 405 | > 408 | 75 to 90 (≈ 125 to 150 mM) | solubility [9]: > 226 mg/mL
5 | CCCCCCCCCCCC(=O)OCOc1ccc2c3c1O[C@H]1C(=O)CC[C@@]4(O)C(C2)N(CC2CC2)CC[C@]314 [Compound 48, (((4aS,7aR,12bS)-3-(cyclopropylmethyl)-4a-hydroxy-7-oxo-2,3,4,4a,5,6,7,7a-octahydro-1H-4,12-methanobenzofuro[3,2-e]isoquinolin-9-yl)oxy)methyl dodecanoate] | > 410 | > 405 | 0.003 (≈ 0.00542 mM) | – | – | – | –
6 | CCCCCCCCCCCCCCCCCC(=O)Oc1ccc2c3c1O[C@H]1C(=O)CC[C@@]4(O)C(C2)N(CC2CC2)CC[C@]314 [Compound 54, (4aS,7aR,12bS)-3-(cyclopropylmethyl)-4a-hydroxy-7-oxo-2,3,4,4a,5,6,7,7a-octahydro-1H-4,12-methanobenzofuro[3,2-e]isoquinolin-9-yl stearate] | < 51 | < 50 | < 0.001 | – | – | – | –
7 | C=C1CC[C@@]2(O)C3Cc4ccc(OC(=O)CCCCCCC/C=C\C/C=C\C/C=C\CC)c5c4[C@@]2(CCN3CC2CC2)[C@H]1O5 [Compound 20, (4aS,7aS,12bS)-3-(cyclopropylmethyl)-4a-hydroxy-7-methylene-2,3,4,4a,5,6,7,7a-octahydro-1H-4,12-methanobenzofuro[3,2-e]isoquinolin-9-yl (9Z,12Z,15Z)-octadeca-9,12,15-trienoate] | 68 to 82 (≈ 113 to 137 mM) | 80 to 100 (≈ 133 to 167 mM) | < 0.0002 | > 414 | > 406 | 157 to 197 (≈ 262 to 328 mM) | –
8 | C=C1CC[C@@]2(O)C3Cc4ccc(OC(=O)CCC5CCCC5)c5c4[C@@]2(CCN3CC2CC2)[C@H]1O5 [Compound 39, (4aS,7aS,12bS)-3-(cyclopropylmethyl)-4a-hydroxy-7-methylene-2,3,4,4a,5,6,7,7a-octahydro-1H-4,12-methanobenzofuro[3,2-e]isoquinolin-9-yl 3-cyclopentylpropanoate] | 104 to 139 (≈ 224 to 300 mM) | 106 to 141 (≈ 229 to 304 mM) | 0.018 (≈ 0.0388 mM) | 225 to 402 (≈ 485 to 868 mM) | > 400 | 150 to 200 (≈ 324 to 431 mM) | solubility [9]: > 218 mg/mL
9 | C=C1CC[C@@]2(O)C3Cc4ccc(OC(=O)OCCCCCCCC)c5c4[C@@]2(CCN3CC2CC2)[C@H]1O5 [Compound 17, (4aS,7aS,12bS)-3-(cyclopropylmethyl)-4a-hydroxy-7-methylene-2,3,4,4a,5,6,7,7a-octahydro-1H-4,12-methanobenzofuro[3,2-e]isoquinolin-9-yl octyl carbonate] | > 408 | > 487 | 0.0008 (≈ 0.00161 mM) | > 416 | > 416 | > 209 | –
10 | CCCCCCCCCCCCCCOC(=O)OCOc1ccc2c3c1O[C@H]1C(=O)CC[C@@]4(O)C(C2)N(CC2CC2)CC[C@]314 [Compound 27, (((4aS,7aR,12bS)-3-(cyclopropylmethyl)-4a-hydroxy-7-oxo-2,3,4,4a,5,6,7,7a-octahydro-1H-4,12-methanobenzofuro[3,2-e]isoquinolin-9-yl)oxy)methyl tetradecyl carbonate] | > 395 | > 399 | < 0.001 | – | – | – | –
11 | CCCCCCCCCCCCCCCCCCCC(=O)Oc1ccc2c3c1O[C@H]1C(=O)CC[C@@]4(O)C(C2)N(CC2CC2)CC[C@]314 [Compound 50, (4aS,7aR,12bS)-3-(cyclopropylmethyl)-4a-hydroxy-7-oxo-2,3,4,4a,5,6,7,7a-octahydro-1H-4,12-methanobenzofuro[3,2-e]isoquinolin-9-yl icosanoate] | < 51 | < 52 | < 0.001 | – | – | – | –
12 | CC(C)(C)CC(=O)Oc1ccc2c3c1O[C@H]1C(=O)CC[C@@]4(O)C(C2)N(CC2CC2)CC[C@]314 [Compound 42, (4aS,7aR,12bS)-3-(cyclopropylmethyl)-4a-hydroxy-7-oxo-2,3,4,4a,5,6,7,7a-octahydro-1H-4,12-methanobenzofuro[3,2-e]isoquinolin-9-yl 3,3-dimethylbutanoate] | – | – | 0.245 (≈ 0.557 mM) | < 51 | < 52 | 78 to 93 (≈ 177 to 212 mM) | solubility [5]: < 26 mg/mL; solubility [7]: < 25.8 mg/mL; solubility thermodynamic [10]: 0.068 mg/mL (≈ 0.155 mM)
13 | CCCCCCCC/C=C/CCCCCCCC(=O)OCOc1ccc2c3c1O[C@H]1C(=O)CC[C@@]4(O)C(C2)N(CC2CC2)CC[C@]314 [Compound 26, (((4aS,7aR,12bS)-3-(cyclopropylmethyl)-4a-hydroxy-7-oxo-2,3,4,4a,5,6,7,7a-octahydro-1H-4,12-methanobenzofuro[3,2-e]isoquinolin-9-yl)oxy)methyl (E)-octadec-9-enoate] | 204 to 239 (≈ 321 to 376 mM) | < 354 | < 0.001 | – | – | – | –
14 | CCCCCCCCCCCCCCCC(=O)OCOc1ccc2c3c1O[C@H]1C(=O)CC[C@@]4(O)C(C2)N(CC2CC2)CC[C@]314 [Compound 49, (((4aS,7aR,12bS)-3-(cyclopropylmethyl)-4a-hydroxy-7-oxo-2,3,4,4a,5,6,7,7a-octahydro-1H-4,12-methanobenzofuro[3,2-e]isoquinolin-9-yl)oxy)methyl hexadecanoate] | < 50 | < 51 | 0.028 (≈ 0.0459 mM) | – | – | – | –
15 | CCCCCCCC/C=C\CCCCCCCCCCCC(=O)Oc1ccc2c3c1O[C@H]1C(=O)CC[C@@]4(O)C(C2)N(CC2CC2)CC[C@]314 [Compound 22, (4aS,7aR,12bS)-3-(cyclopropylmethyl)-4a-hydroxy-7-oxo-2,3,4,4a,5,6,7,7a-octahydro-1H-4,12-methanobenzofuro[3,2-e]isoquinolin-9-yl (Z)-docos-13-enoate] | 67 to 80 (≈ 101 to 121 mM) | 67 to 80 (≈ 101 to 121 mM) | – | – | – | – | solubility [5]: > 406 mg/mL; solubility [7]: > 402 mg/mL; solubility (organic solvent or mixture, Approximate Solubility in Excipient: Ethanol, Heating Temp. 60 °C, Obs. Temp. 40 °C): > 398 mg/mL; solubility thermodynamic [10]: 0.0314 mg/mL (≈ 0.0474 mM)
16 | C=C1CC[C@@]2(O)C3Cc4ccc(OC(=O)OCCCCCCCCCCCCCCCCCC)c5c4[C@@]2(CCN3CC2CC2)[C@H]1O5 [Compound 33, (4aS,7aS,12bS)-3-(cyclopropylmethyl)-4a-hydroxy-7-methylene-2,3,4,4a,5,6,7,7a-octahydro-1H-4,12-methanobenzofuro[3,2-e]isoquinolin-9-yl octadecyl carbonate] | < 50 | < 51 | < 0.001 | – | – | – | –
17 | C=C1CC[C@@]2(O)[C@H]3Cc4ccc(O)c5c4[C@@]2(CCN3CC2CC2)[C@H]1O5 [61 (Nalmefene)] | – | – | – | – | – | – | Approximate Solubility in Excipient: Cottonseed oil [10]: <25.0 mg/mL; Approximate Solubility in Excipient: Ethanol [10]: 102 to 137 mg/mL; Approximate Solubility in Excipient: Sesame oil [10]: <25.5 mg/mL; Equilibrium solubility: Water [10]: 0.025 mg/mL
